Measurements reported in US9364002B2, “Plant volatiles” (Keygene N.V., priority 2007, dated 2016).

How the values were obtained:
B. tabaci [1] = assay: Free-choice bioassay: headspace or pure volatiles added to one of four cv Moneymaker tomato plants; type: in vivo, Bemisia tabaci (biotype Q, Almeria population); details: pure compound added to Moneymaker background
Protocol: A population of Bemisia tabaci was collected at a common greenhouse in Santa Maria del Aguila (Almeria, Spain) in October 2005. By PCR analyses this population was identified to belong to the Q-biotype. The population was reared in a climate chamber (Temperature 28° C., 16 h light) on a mixture of tomato and cucumber plants. Preference of the insects for particular plants (treated or untreated/control-treated) was tested in free choice bioassays.
Free choice experiments with B. tabaci were carried out in a greenhouse compartment (28° C., RH 65%). Light was supplied by high-pressure sodium lamps (Hortilex Schréder SON-T PIA GP 600 W) with a radiation of 250 W/m^2. The preference behaviour of B. tabaci biotype Q (Almeria population) and biotype B (labculture Netherlands) was compared in bioassays with different wild tomatoes (LA1777, LA2560, GI1560) and S. lycopersicum cv Moneymaker). Plants were placed inside a plastic covered wooden tray (170×100×20 cm) filled with soil, at equal distance from each other. Two hundred adult whiteflies were captured, placed at 4° C. for five minutes and then released in the middle of the setup. Ten and 20 minutes after release, the number of whiteflies on each plant was recorded. Since no differential behaviour between B. tabaci B and Q was found, all further bioassays were done with the Almeria (Q) population.
For bioassays with headspace (total headspace or single compounds) four potted tomato plants (S. esculentum cv Moneymaker) were placed in a square setup at a distance of 50 cm. One hundred and fifty adult whiteflies were released and recorded as described above. To test the effect of selected headspace components on repellence, synthetic standards (FLUKA) were applied to either 10 filter-papers discs (Whatman, 25 mm diameter) or 10 rubber septa (Sigma Aldrich, Z167258). Prior to loading, the septa were placed in CH2Cl2 for 24 h and air-dried for 3 days (Heath et al., 1986). The paper discs or septa containing volatiles were attached to one of the four plants with metal wire. The position of the treated tomato was randomised. Five minutes after placing the volatiles on the plant, whiteflies were released. For each component at least 8 replications were carried out. Treatments were administered in a setup in which compounds were always added to the same plant in comparison to 3 plants with empty carriers. Prior to each assay with volatiles, the experiment was done with the 4 plants in an untreated setup, in the same position to allow comparison in the same background.
Host preference with and without manipulated headspace by B. tabaci was explored in free choice assays. In each setup four cultivated tomatoes (cv. Moneymaker) were tested as described earlier. For the bioassays with volatiles rubber septa (Sigma Aldrich Z167258) were extracted with CH2Cl2 for 24 hours and dried to the air for 3 days. The desired blend of volatiles was added to the rubber septa in 100 μl hexane. Bioassays with pure components, or mixtures of pure components were carried out as described above.

B. tabaci [2] = assay: Statistical correlation (stepwise-linear regression, MANOVA) of headspace volatiles with whitefly repellence ranking; set-up: species or system Bemisia tabaci; details: for compounds responsible for repellency or attraction of whitefly: linked to S. pennelli, S. habrochaites or cultivated S. lycopersicum headspace; for association: semiochemicals associated to B. tabaci repellence or attraction; for Effect on insects: volatiles of tomato headspace correlated to whitefly repellency/attraction score by linear regression
Excerpt: In a large experiment (see Example 2), the headspace of 16 wild tomato accessions and 5 cultivated tomato lines were sampled and analyzed (6 repeats). In total 51 compounds were identified to be present in the captured headspace. Furthermore, the level of repellency/attraction of each of the 21 tomato accessions was established in free choice bioassays with B. tabaci (biotype Q), using a ranking scale of 1-7 (1=highest repellency to 7=lowest repellency). Next, the identified volatile compounds were correlated to the repellency/attraction score of each tomato accession through a linear regression analysis.
The headspace of 16 wild tomatoes and 5 cultivated tomatoes (Table 4) was collected. Undisturbed 3-weeks old tomato plants were transferred to 40-L desiccators. The headspace was sampled during 24 h including a 16 h light period, by trapping of the volatile components as described above. […] Each accession was sampled 6 times.
In a statistical analysis the correlation between the identified components of the tomato headspace and the ranking of whitefly repellence measured in the bioassays was made. Using two approaches, a stepwise-linear regression analysis and a MANOVA, 8 volatiles were identified to be correlated to whitefly repellence, whereas 24 other volatile compounds were eliminated as non-relevant for repellency or attraction.

B. tabaci antennae = assay: Electroantennography (EAG); set-up: species or system Bemisia tabaci; details: 10^-3 dilution in paraffin oil; response to paraffin oil subtracted
Protocol: Electroantennography (EAG) was employed to confirm the responsiveness of the atennae to 10^−3 dilution in paraffin oil (Uvasol, Merck) of the chemicals described. Small pieces of filter paper (2 cm2; Schleicher & Schuell, Dassel, Germany) were soaked with 100 μl of the standard dilution or praffin oil only (control). The filter paper was inserted into a 10-ml glass syringe (Poulten & Graf GmbH, Wertheim, Germany). A reproducible stimulus was supplied by puffing 5 ml of air over the antenna (Schutz et al., 1999). The EAG response was recorded for each standard (10^−3) dilution. The response to paraffin oil was considered as a negative control and was subtracted from all the reported EAG measurements. The EAG response expressed as a potential difference across the electrodes (in mV) for the different pure chemicals is given in the right-hand column of Table 5.

[3] = test system: pests of cut flowers (e.g. B. tabaci); details: fumigants at 10-20 mg/l, after 2-4 hours of exposure; cited from earlier work
[4] = test system: fourth instar larvae of Colorado potato beetle; details: cited from earlier work
[5] = test system: adult whiteflies B. tabaci; details: cited from earlier work

Compound	effect on repellence/attractiveness of treated tomato plant (in words) (B. tabaci [1])	compounds responsible for repellency or attraction of whitefly (B. tabaci [2])	association (B. tabaci [2])	Effect on insects (B. tabaci [2])	antennal response (EAG potential difference) (B. tabaci antennae) [mV]	further results
CC1=CCC(C(C)C)C=C1 (stereo not drawn) [Alpha-phellandrene]	decreased tomato attractiveness significantly	repellent	repellence	Repellent	2.2	–
CC12CCC(CC1)C(C)(C)O2 [Cineole]	–	–	–	–	–	mortality [3]: caused mortality
Cc1ccc(C(C)C)cc1 [para-cymene]	–	repellent	repellence	Repellent	2.4	–
C=CCc1ccc2c(c1)OCO2 [safrole]	–	–	–	–	–	mortality [3]: caused mortality
CC(C)=CCCC(C)[C@@H]1C=CC(C)=CC1 (stereo partly drawn) [zingiberene]	–	–	–	Repellent	–	–
CCCCCCCCCC(C)=O [2-undecanone]	–	–	–	–	–	toxic effect [4]: toxic effect
CCCCCCCCCCCC(C)=O [2-tridecanone]	–	–	–	–	–	toxic effect [5]: toxic effect
CC1=CC=C(C(C)C)CC1 [Alpha-terpinene]	decreased tomato attractiveness significantly	repellent	repellence	Repellent	4.1	–
C=CC(=C)CCC=C(C)C [beta-myrcene]	–	repellent	–	Repellent	–	–
CC1=CC2C(CC1)C2(C)C (stereo not drawn) [2-carene]	–	significantly correlated to the more attractive cultivated S. lycopersicum plants	–	Attractant	–	–
CC(C)=CCCC(C)c1ccc(C)cc1 (stereo not drawn) [alpha-curcumene]	–	–	–	Repellent	–	–
C=C1C=CC(C(C)C)CC1 (stereo not drawn) [beta-phellandrene]	–	significantly correlated to the more attractive cultivated S. lycopersicum plants	–	Attractant	–	–
CC(C)=CCC[C@H](C)c1ccc(C)cc1 [S-curcumene]	clear repellent effect	more unattractive	repellence	–	5.0	–
CC(C)=CCC[C@@H](C)[C@@H]1C=CC(C)=CC1 [7-epi zingiberene]	clear repellent effect	more unattractive	repellence	–	2.3	–
C=C(C)[C@H]1CC=C(C)CC1 [limonene]	–	significantly correlated to the more attractive cultivated S. lycopersicum plants	–	Attractant	–	–
CC1=CCC(C(C)C)=CC1 [gamma-terpinene]	no significant behavioural effect	repellent	–	Repellent	–	–
